Experiments:
COS 5-7 cells [1] = assay: Uptake after one minute of electric pulse train (EPT) in three-compartment device, FACS; assay type: cell-based, African green monkey; conditions: for Folds Uptake mean: electric field 200 mA/cm^2; for Folds Uptake mean / Folds Uptake Fold: 1 min, 10 μM Dextran-FITC; for Folds Uptake Fold: relative to unexposed cells
Description: The values in the tables are shown as folds relative to the uptake in cells unexposed to any of the treatments.
Exposure of cells to low-intensity trains of unipolar rectangular voltage pulses was carried in a three-compartment exposure set-up where the anode and cathode were connected to an electric pulse generator (Grass S44 Stimulator). The exposure set-up consisted of a rectangular chamber made from polystyrene, 15 mm long, 10 mm wide, with 0.5 cm^2 area platinum electrodes positioned on the extreme sides (see FIG. 15). The chamber is divided by two porous membranes (PolyEtherSulfon, 0.8 μm pores, 200 μm depth), into three distinct and equal compartments: anode, cathode and center ones. The electric field parameters applied were monitored on line by recording the voltage and the current (by means of a wide band current probe, Pearson) on an oscilloscope. Typically, a cell suspension (1*10^6 cells/ml) is exposed to a train of electric pulses consisting of unipolar rectangular pulses with duration of 180 μs, frequency of 500 Hz for the total time of exposure of one minute.
Cells (COS 5-7) were harvested, re-suspended in DMEM (1 mg/ml glucose, 5% FCS), and incubated (37°, 5% CO2) as designated by the experiment. For uploading the cells with either H2DCF-DA (20 μM) or Bis-DHA (1 mM) incubation lasted 90 minutes. When no pre-treatments were required, the cells were kept in the DMEM for 30 minutes. Following incubation, the cells were centrifuged at 400g for 1 min, the solution aspirated, and cells re-suspended in HBSS exposure media.
Cell suspensions were centrifuged (400g for one minute), their solutions aspirated and they were re-suspended with 0.5 ml DMEM-H supplemented with 10u/ml dextranase (Sigma-Aldrich) for 10 minutes at RT. Cells were centrifuged again; their solution aspirated and they were re-suspended with 0.2 ml DMEM-H. PI (25 μg/ml) as a label for permeabilized cells and tryphan blue (0.01% w/v) as a fluorescence quenching agent for extracellular FITC (36) were added to each sample shortly before analysis
Flow cytometry analysis was carried out by FACSort (Becton @ Dickson, San Jose, Calif.), employing a 488-nm argon laser excitation. […] Ten thousand cells were examined for each sample and data were collected in the list mode. The analysis of flow cytometry data was performed using WINMDI 2.9 software (Joe Trotter, The Scripps Research Institute). For each sample the geometrical mean was calculated without including PI stained cells. Cell intensity was determined as fold of induction relative to cells' constitutive uptake.

HaCaT cells = assay: Proton induced uptake (PIU) in HaCaT cells, FACS; assay type: cell-based, human; conditions: pH 5.25; pulse label for last 5 minutes
Description: FIG. 6 is a chart showing PIU of molecules different by size and charge, in accordance with some embodiments of the invention. Hacat cultures were exposed to solutions of pH 5.2 or pH 7.4 for 5 minutes period, in the presence of different fluorescence molecules (All at 25 μM concentration). FACS analysis results (FL1, geometrical mean±SD) for the cell cultures exposed to pH 5.2 are presented as fold induction relative to results obtained for cells exposed to pH 7.4. This can be used, in some embodiments of the invention, to assess effect of molecule size and charge on uptake.
FIGS. 7A-7B are charts showing the comparison of PIU in adherent and suspended HaCaT cells, in accordance with some embodiments of the invention. For FIG. 7A, HaCaT cells were tested either at their adherent state, or following harvest at a suspended state. […] FACS analyses (FL1) in terms of geometrical mean±SD are presented as fold induction relative to the constitutive uptake at physiological pH 7.4. n=9 in 3 independent experiments. For FIG. 7B, HaCaT Cells were cultivated at low, medium or high cell density. […] The cultures were harvested and undergone FACS analyses (FL1) in terms of geometrical mean±SD and are presented as fold induction relative to the constitutive uptake of low density cultures. Statistical significance was tested against the confluent culture, n=9 in 3 independent experiments. In the charts, * indicates a t-test p<0.05; and ** indicates a t-test p<0.01. This can be used, in some embodiments of the invention, to assess effect of cell membrane rigidity and/or tissue structure on uptake.
FIGS. 12A-12B are a chart and images which show the relative change of PIU by modifiers of actin cytoskeleton organization, in accordance with some embodiments of the invention. […].

COS 5-7 cells [2] = assay: Proton induced uptake (PIU) in adherent COS 5-7 cultures, 5 minutes, FACS; assay type: cell-based, African green monkey; conditions: pH 5, P<0.001
Description: Uptake, based on flow cytometry, is plotted as function of the external pH from 3 independent experiments per cell line.
FIG. 1A is shown the Extent of uptake in terms of FITC intensity geometrical mean±SD is presented as fold induction relative to the constitutive uptake at physiological pH 7.4. In FIG. 1B is shown the PI (a necrotic cell marker) stained cells fraction±SD (%) relative to unexposed control population. In FIG. 1C is shown the FITC geometrical mean±SD presented as fold induction relative to the constitutive uptake at physiological pH 7.4.

Substance: Dextran-FITC
- Folds Uptake mean (COS 5-7 cells [1]; 60 mM HEPES in HBSS): 51.98 folds
- Folds Uptake mean (COS 5-7 cells [1]; 70 mM HEPES in HBSS): 48.84 folds
- Folds Uptake mean (COS 5-7 cells [1]; 80 mM HEPES in HBSS): 14.86 folds
- Folds Uptake mean (COS 5-7 cells [1]; 90 mM HEPES in HBSS): 12.81 folds
- Folds Uptake mean (COS 5-7 cells [1]; 100 mM HEPES in HBSS): 10.06 folds
- Folds Uptake mean (COS 5-7 cells [1]; 120 mM HEPES in HBSS): 4.613 folds
- Folds Uptake mean (COS 5-7 cells [1]; 150 mM HEPES in HBSS): 3.106 folds
- Folds Uptake Fold (COS 5-7 cells [1]; 10 V/cm, 80 mA/cm^2): 1.62 folds
- Folds Uptake Fold (COS 5-7 cells [1]; 13.3 V/cm, 120 mA/cm^2): 2.449 folds
- Folds Uptake Fold (COS 5-7 cells [1]; 16.6 V/cm, 160 mA/cm^2): 6.017 folds
- Folds Uptake Fold (COS 5-7 cells [1]; 20 V/cm, 80 mA/cm^2): 1.824 folds
- Folds Uptake Fold (COS 5-7 cells [1]; 20 V/cm, 120 mA/cm^2): 3.015 folds
- Folds Uptake Fold (COS 5-7 cells [1]; 20 V/cm, 160 mA/cm^2): 5.476 folds
- Folds Uptake Fold (COS 5-7 cells [1]; 20 V/cm, 200 mA/cm^2, 100 mM HEPES): 9.134 folds
- Folds Uptake Fold (COS 5-7 cells [1]; 26.6 V/cm, 200 mA/cm^2): 11.73 folds
- Folds Uptake Fold (COS 5-7 cells [1]; 33.3 V/cm, 200 mA/cm^2): 10.49 folds
- Folds Uptake Fold (COS 5-7 cells [1]; 46.6 V/cm, 80 mA/cm^2): 1.694 folds
- Folds Uptake Fold (COS 5-7 cells [1]; 46.6 V/cm, 160 mA/cm^2): 6.34 folds
- Folds Uptake Fold (COS 5-7 cells [1]; 66.6 V/cm, 120 mA/cm^2): 3.447 folds
- increase in cellular uptake in the anodic compartment (COS 5-7 cells [1]; train of electric pulses 20V/cm, 200 mA/cm^2, anodic compartment only, relative to constitutive uptake): 10 fold
- initial PIU rate of adherent cultures, folds lower than suspended cells (HaCaT cells): 2.5 folds
- dextran concentration relative to HT29 cells (COS 5-7 cells [2]): 2 folds

Reference: US20130004581A1, “CONTROLLING UPTAKE BY CELLS” (Ramot at Tel-Aviv University Ltd., priority 2010, published 2013)
